Series [1] addresses T1, NADPH oxidase (Homo sapiens, UniProt P04839). The series is described as follows: Lucigenin assay of NADPH-dependent superoxide production in vesicular fractions of IL-1β-stimulated MCF-7 cells.
Experimental: Cytokine treatments and vesicular isolation. MCF-7 cells were treated with recombinant IL-1β at the indicated concentration for 20 minutes prior to all vesicular isolations. For endosomal loading experiments, purified bovine Cu/ZnSOD (Oxis Research) and/or catalase (Sigma-Aldrich) proteins were added to fresh media (0.1 to 1 mg protein/ml) and applied to cells 10 minutes prior to cytokine treatment in the continued presence of SOD and/or catalase. Cells were washed and scraped into ice-cold PBS. Cell pellets were then resuspended in 0.5 ml of homogenization buffer (0.25 M sucrose, 10 mM triethanolamine, 1 mM EDTA, 1 mM PMSF, and 100 ug/ml aprotinin), homogenized in a Duall tissue grinder (Duall), and centrifuged at 2000×g at 4° C. for 10 minutes. The supernatant was designated the post-nuclear supernatant (PNS). […] The PNS was then bottom loaded under two-step gradients of 24% and 20% Iodixanol in homogenization buffer. Samples were centrifuged at 30,500 rpm for 2 hours at 4° C. Fractions were collected from the top to the bottom of the centrifuge tube at 4° C. (about 300 μl per fraction) and utilized immediately for NADPH oxidase activity and immuno-isolation, or frozen for Western blot analysis.
NFκB and NADPH oxidase activity assays. […] NADPH oxidase activities were analyzed by measuring the rate of ? generation using a chemiluminescent, lucigenin-based system (Li et al., 2001). Prior to the initiation of the assay, 5 μg of vesicular proteins were combined with 5 μM lucigenin (Sigma-Aldrich) in PBS and incubated in darkness at room temperature for 10 minutes. The reaction was initiated by the addition of 100 μM of NADPH (Sigma-Aldrich) and changes in luminescence were measured over the course of 3 minutes (5 readings/second). The slope of the luminescence curve (relative light units [RLU] per minute) (r>0.95) was used to calculate the rate of ? formation as an index of NADPH oxidase activity (RLU/min μg protein).
Another series relates to Nox. The series is classed as biochemical, mouse. As to the method:
Lucigenin chemiluminescence (LCL) assay for NADPH-dependent superoxide (.O2) production. NADPH oxidase activities were analyzed by measuring the rate of ? generation using a chemiluminescent, lucigenin-based system (Li et al., 1998). 5 μM lucigenin in 50 μl of each subcellular fractions was incubated in the dark at room temperature for 15 minutes. LCL was measured using a single-tube Luminometer TD20-20 (Turner Designs Sunnyvale, Calif.). The reaction was initiated by the addition β-NADPH to a final concentration of 100 μM with or without DPI and/or SOD as indicated. LCL was measured over the course of 5 minutes. The initial slope of the luminescence curve (RLU/minute) was used to calculate the rate of luminescence product formation and compared between samples as an index of NADPH oxidase activity.

In another series the target is Nox2 (Mus musculus, UniProt Q61093). To be noted: PMDF endosomes with purified bovine SOD1. The source says: Subcellular Fractionation.
Lucigenin chemiluminescence (LCL) assay for NADPH-dependent superoxide (.O2) production.

For the next series, the system named is MCF-7 cells. The series is described as follows: H2HFF-BSA endosomal fluorescence after IL-1β in MCF-7 cells. In kind it is cell-based, human. How it is done: In vivo localization of redox-active endosomes and ROS production. In vivo localization of superoxides within endosomes was performed using OxyBURST Green H2HFF-BSA (Molecular Probes). Stock solutions (1 mg/ml) were generated immediately prior to use by dissolving H2HFF-BSA in PBS under nitrogen and protected from light. Cells were incubated in the presence of 50 μg/ml OxyBurst Green H2HFF-BSA for 2 minutes at 37° C. and then stimulated by the addition of IL-1β (1 ng/ml). Cells were fixed in 4% paraformaldehyde at various times (1-10 minutes) post-stimulation and evaluated by fluorescent microscopy. Various compounds (1 mg/ml SOD or 10 μM DPI) were added at the time of IL-1β stimulation. Co-localization of H2HFF-BSA and EEA1 was performed by immunofluorescent localization in post-fixed samples using an anti-EEA1 monoclonal antibody (Transduction Laboratories) and a Texas Red-Conjugated Goat Anti-Mouse Antibody (Jackson ImmunoResearch Laboratories). In vivo localization of total cellular ROS (predominantly H2O2) was performed using H2DCFDA (Molecular Probes). […]
IL-1β induces Nox2 complex activation in early endosomes. […] By incubating cells in the presence of H2HFF-BSA, the endosomal compartment was loaded with this dye and ? detected by a green fluorescence signal. […] These findings confirmed that Nox-derived ? were the major ROS detected by H2HFF-BSA in the endosomal compartment. […]

The next series relates to SOD1-G93A mice. The series is described as follows: Survival and disease progression of G93A-SOD1 transgenic (ALS) mice given apocynin in drinking water. In kind it is in vivo, mouse. The source says: FIG. 14. […] D) Survival Index is the time between disease onset and clinical death and is a marker of disease progression.
(§1) FIG. 17. […] A) Survival curve for mice treated with different doses of apocynin in their water beginning at 14 days of age. Number of mice (N) for each treatment group is shown along with median survival times in days. B) Survival data of male and female mice for each given dose of apocynin. Mice treated for eye infections with antibiotics are marked as boxes. Those mice that were unsuccessfully treated and died from eye infections are denoted by an X within the box. Circles denote animals that never contracted eye infection. The number of mice in each group (N) is given above the mean survival in days for each dose of apocynin. C) Relationship between age of disease onset (as determined by a 5% weight loss during a one week period) and apocynin dosage. D) Survival Index was measured as the time from disease onset until the animal reached clinical death for each of the given doses of apocynin. E) NADPH-dependent superoxide production (Nox activity) was measured in total membranes of lumbar spinal cord from end-stage G93A-SOD1 transgenic mice (about 120 days of age) either untreated or treated with apocynin (300 mg/kg) for 5 days prior to analysis (N=5 in each group). F) Dihydroethidium fluorescence in lumbar spinal cord of the same mice shown in (E).
However, it is currently unclear if other Rac-regulated Nox complexes (such as Nox1 and Nox3) might also contribute to altered ROS production in ALS. To test the therapeutic potential of direct Nox inhibition on the pathoprogression of ALS disease, apocynin in vivo inhibition studies were performed in G93A-ALS mice.

The test system of series [2] is NADPH oxidase. In words: Nox activity (lucigenin, DHE) in lumbar spinal cord of end-stage G93A-SOD1 mice after 5 days of apocynin. To be noted: terminal stage ALS mice, apocynin 300 mg/kg in water for five days. In kind it is in vivo, mouse.
Text: as §1

Series [3] is classed as in vivo. To be noted: non-ALS mice treated with apocynin.
The next series relates to SH-SY (neuronal) cells. In words: NADPH-dependent superoxide production and cell death in neuronal cells infected with adenovirus expressing mutant SOD1. In kind it is cell-based. The settings on record: apocynin 100 μM for 72 hours. The source says:
(§2) FIG. 15. […] A) NADPH-dependent superoxide production in total endomembranes from brain, spinal cord, and liver of non-transgenic or transgenic mice overexpressing WT-SOD1 or G93A-SOD1 (N=3 animals in each group). B) Dihydroethidium (DHE) fluorescent detection of superoxide in lumbar spinal cord sections from 120 day old non-transgenic or transgenic mice overexpressing WT-SOD1 or G93A-SOD1. DAP1 staining demarcates nuclei in lower panels. C, D) Measure of superoxide production (C) or trypan-blue exclusion as a measure of cell death (D) in SH-SY (neuronal) or MO59J (glial) cells infected with adenoviral vectors expressing LacZ, WT-SOD1, or the indicated mutant SOD1. E) Superoxide production and percentage of cell death in SH-SY or MO59J cells following infection with the indicated adenoviral vectors followed by treatment with or without apocynin (100 μM) for 72 hours. F) Rac-GTP activation as determined by association with GST-Pak1 using spinal cord cell lysates from non-transgenic (control) or G93A-SOD1 transgenic mice at 120 days of age. Controls include lysate from control mice incubated with GTPγS (+) or GDPβS (−) prior to performing Pak1 pull-down assays. […]

In another series the test system is MO59J (glial) cells. In words: NADPH-dependent superoxide production and cell death in glial cells infected with adenovirus expressing mutant SOD1. The settings on record: apocynin 100 μM for 72 hours. The series is classed as cell-based.
Text: as §2

The target of series [4] is T1, NADPH oxidase. The series is described as follows: ESR (DMPO adduct) of NADPH-dependent superoxide by IL-1β-activated endosomes. In kind it is biochemical. To be noted: endosomal loading prior to vesicular isolation. On the set-up: enhanced recruitment of endogenous Nox2 to endosomes only following IL-1β stimulation; endogenous in cells; host or cells: MCF-7 cells, IL-1β-stimulated, iodixanol vesicular fractions.

In a further series the target is T2, Rac1/SOD1 binding (Homo sapiens, UniProt P63000).
T2 construct: purchased Cytoskeleton Inc. (His-Rac1); Oxis Research (bovine SOD1)
The series is described as follows: In vitro pull-down of His-Rac1-GTPγS with SOD1. As to the method:
Pull-down assays with GST- and His-tagged proteins. […] The GTPases were either used directly or preloaded with either GTPγS or GDPβS and then washed. […] Samples were incubated at room temperature (RT) for 30 minutes with intermittent gentle agitation. […] The fourth wash was carried out in 50 mM Tris pH 6.8. Proteins were eluted using 20 μl 125 mM imidazole and samples were then mixed with SDS-PAGE reducing loading buffer and separated by SDS-PAGE for Western blotting.

Where two headings read alike, the source gives them in different places.

`c1ccc2c(c1)[I+]c1ccccc1-2` [DPI, diphenyleneiodonium chloride]: the “NADPH-dependent superoxide production in peak vesicular fractions” value on NADPH oxidase [1] is reported as “sensitive”. Also, the NADPH-dependent superoxide production result in the series on Nox is reported as “inhibited”. Also, the “SOD1-mediated enhancement in endosomal NADPH-dependent superoxide” value on Nox2 is on record as “sensitive”. Also, the “IL-1β-induced H2HFF-BSA fluorescence” value with MCF-7 cells (10 μM DPI added at IL-1β stimulation) was “significantly inhibited”.

In the case of `COc1cc(C(C)=O)ccc1O` [apocynin, 4-Hydroxy-3-methoxyacetophenone], in the series on SOD1-G93A mice (300 mg/kg, at 120 days), the “Number of motor neurons in the lumbar spinal cord” value is on record as “significantly increased”. Besides, the Probability of survival in the series on SOD1-G93A mice (SOD1-G93A mice, apocynin 30 mg/Kg, nontreated 125 days, p<0.0001) amounted to 185 days. Also, in the series on SOD1-G93A mice (apocynin 30 mg/Kg, at 114 days of age, untreated mice impaired gait), the Gait analysis result is listed as “normal gait”. Further, the “Survival Index (time between disease onset and clinical death)” value in the series on SOD1-G93A mice (apocynin 30 mg/Kg, n=6, untreated 11 days) was found to be 32 days. Also, the “Survival of G93A-SOD1 mice, dose dependence” value with SOD1-G93A mice (apocynin in drinking water from 2 weeks of age) is listed as “prolonged survival of G93A-SOD1 mice in a dose-dependent fashion”. Besides, the “Average age of disease onset” value in the series on SOD1-G93A mice (first observation of hind limb weakness, apocynin 30 mg/Kg, n=6, untreated 117.5 days) was determined as 156.5 days. In addition, the 50% survival time in the series on SOD1-G93A mice (highest dose 300 mg/kg in drinking water from 2 weeks of age, increased from 125 days) is listed as 239 days. In addition, the “Life expectancy and disease onset” value in the series on SOD1-G93A mice (lowest tested dose) was “prolong life expectancy and delay disease onset”. In addition, in the series with SOD1-G93A mice (onset judged by 5% weight loss and gait), the “Age of onset of disease and survival index versus dose” value was “clear dose response”. In addition, the “Nox-derived superoxide production in vivo (spinal cord, lucigenin and DHE assays)” value in the series with NADPH oxidase [2] is reported as “effectively inhibited”. In series [3], the Eye disease entry is reported as “did not develop eye disease”. In the series on SH-SY (neuronal) cells, the Nox activity entry is “could not inhibit” and the “Protection from mutant SOD1-mediated cellular injury” value is given as “nor did it protect”. Moreover, in the series with MO59J (glial) cells, the Cell viability result is “increase in cell viability” and the “SOD1 mutant facilitated NADPH-dependent superoxide production” value is listed as “abrogated”.

For the compound `C=C(C)[C@H]1Cc2c(ccc3c2O[C@@H]2COc4cc(OC)c(OC)cc4[C@@H]2C3=O)O1` [rotenone], the “NADPH-dependent superoxide production in peak vesicular fractions” value at NADPH oxidase [1] (IL-1β-stimulated MCF-7 cells) is “not”.

On to “Cu/ZnSOD: purified bovine Cu/ZnSOD (Oxis Research) added to media for endosomal loading”, for which the “IL-1β-induced H2HFF-BSA fluorescence” value with MCF-7 cells (purified Cu/ZnSOD protein loaded into endosomal compartment, 1 mg/ml) is given as “significantly inhibited”. Moreover, the “DMPO adduct formation (ESR)” value with NADPH oxidase [4] was “completely inhibited”.

Consider catalase, for which the “DMPO adduct formation (ESR)” value on NADPH oxidase [4] was “not”.

Consider `OO` [H2O2, hydrogen peroxide], for which the “Lowest H2O2 concentration causing a significant decrease in the binding affinity of Rac1 for SOD1” value at Rac1/SOD1 binding (Rac1 reduced with DTT, preloaded with GTPγS) was 50 pM.

In the case of antimycin A, the “NADPH-dependent superoxide production in peak vesicular fractions” value at NADPH oxidase [1] (IL-1β-stimulated MCF-7 cells) is listed as “not”.

For the compound `O[C@H](CS)[C@H](O)CS` (racemic) [DTT, dithiothreitol], the “DTT concentration reversing H2O2-mediated inhibition of Rac1/SOD1 binding” value at Rac1/SOD1 binding (Rac1 oxidized with 300 pM H2O2) lay within 50 to 300 µM.

The record behind these values is patent US20080206792A1, “Method of identifying compounds useful to treat neuronal degenerative diseases” (University of Iowa Research Foundation, priority 2005, published 2008).
